What all share (type): in vivo
One test has as its system Myzus persicae. In words: Myzus persicae - oral test. The settings on record: 120 h, read-out: mortality in %. The protocol: To produce a suitable preparation of active compound, 1 part by weight of active compound is mixed with the stated amount of solvent, and the concentrate is diluted with water to the desired concentration. 50 μl compound solution is filled in microtiter plates and 150 μl IPL41 insect medium (33%+15% sugar) is added to obtain a total volume of 200 μl per well. Afterwards the plates are sealed with parafilm through which a mixed population of the green peach aphid (Myzus persicae) can suck on the compound preparation.
(§1) After 5 days mortality in % is determined. 100% means all aphids have been killed and 0% means none of the aphids have been killed.

The subject of another test is Spodoptera frugiperda. In words: Spodoptera frugiperda - spray test. The settings on record: in Zea mays, 168 h, read-out: mortality in %. How it is done:
Spodoptera frugiperda—Spray Test
(§2) To produce a suitable preparation of active compound, 1 part by weight of active compound is mixed with the stated amount of solvents and is diluted with water, containing an emulsifier concentration of 1000 ppm, to the desired concentration. Further test concentrations are prepared by dilution with emulsifier containing water.
Maize (Zea mays) leaf sections are sprayed with a preparation of the active ingredient of the desired concentration. Once dry, the leaf sections are infested with fall armyworm larvae (Spodoptera frugiperda).
After 7 days mortality in % is determined. 100% means all caterpillars have been killed and 0% means none of the caterpillars have been killed.

For another test, the system named is Aphis gossypii. The test can be described thus: Aphis gossypii - oral test. The settings on record: 120 h, read-out: mortality in %. How it is done:
Solvent: 100 parts by weight acetone
To produce a suitable preparation of active compound, 1 part by weight of active compound is mixed with the stated amount of solvent, and the concentrate is diluted with water to the desired concentration.
50 μl compound solution is filled in microtiter plates and 150 μl IPL41 insect medium (33%+15% sugar) is added to obtain a total volume of 200 μl per well. Afterwards the plates are sealed with parafilm through which a mixed population of the cotton aphid (Aphis gossypii) can suck on the compound preparation.
as §1

The next test deals with Phaedon cochleariae. The test can be described thus: Phaedon cochleariae - spray test. The settings on record: in Brassica rapa, foliar, 168 h, read-out: mortality in %. The protocol: Phaedon cochleariae—Spray Test
as §2
Chinese cabbage (Brassica pekinensis) leaf disks are sprayed with a preparation of the active ingredient of the desired concentration. Once dry, the leaf disks are infested with mustard beetle larvae (Phaedon cochleariae).
After 7 days mortality in % is determined. 100% means all beetle larvae have been killed and 0% means none of the beetle larvae have been killed.

The next test concerns Nezara viridula. In words: Nezara viridula - spray test 1. The settings on record: in Hordeum vulgare, 96 h, read-out: mortality in %. How it is done:
Nezara viridula—Spray Test 1
(§3) To produce a suitable preparation of active compound, 1 part by weight of active compound is mixed with the stated amount of solvent, and the concentrate is diluted with water, containing an emulsifier concentration of 1000 ppm, to the desired concentration. Further test concentrations are prepared by dilution with emulsifier containing water.
Barley plants (Hordeum vulgare) infested with larvae of the southern green stink bug (Nezara viridula) are sprayed with a test solution containing the desired concentration of the active ingredient.
After 4 days mortality in % is determined. 100% means all the stink bugs have been killed; 0% means none of the stink bugs have been killed.

The next test relates to Nilaparvata lugens. The test can be described thus: Nilaparvata lugens - spray test 1. The settings on record: in Oryza sativa, 96 h, read-out: mortality in %, 500 g/ha, rice plants, after 4 days. How it is done:
Nilaparvata lugens—Spray Test 1
as §2
Rice plants (Oryza sativa) are sprayed with a preparation of the active ingredient of the desired concentration and the plants are infested with the brown planthopper (Nilaparvata lugens).
After 4 days mortality in % is determined. 100% means all planthoppers have been killed and 0% means none of the planthoppers have been killed.

The next test concerns Diabrotica balteata. In words: Diabrotica balteata - spray test. The settings on record: 168 h, 160 μg/well, germinated wheat seeds, larvae, after 7 days, read-out: efficacy in %. How it is done:
Diabrotica balteata—Spray Test
as §3
Soaked wheat seeds (Triticum aestivum) are placed in a multiple well plate filled with agar and some water and are incubated for 1 day to germinate (5 seeds per well). The germinated wheat seeds are sprayed with a test solution containing the desired concentration of the active ingredient. Afterwards each unit is infected with 10-20 larvae of the banded cucumber beetle (Diabrotica balteata).
After 7 days efficacy in % is determined. 100% means all the seedlings have grown up like in the untreated, uninfected control; 0% means none of the seedlings have grown.

Consider `C[C@H](NC(=O)c1cc(Cl)cc(C(F)(F)F)c1)c1ncnn1-c1ccccn1` [Compound I-117, 3-chloro-N-[(1S)-1-[2-(2-pyridyl)-1,2,4-triazol-3-yl]ethyl]-5-(trifluoromethyl)benzamide], for which the mortality at 20 ppm with Myzus persicae came to 100%. Besides, the mortality at 500 g/ha in the test with Spodoptera frugiperda, in the test with Phaedon cochleariae, in the test with Nezara viridula and in the test on Nilaparvata lugens was 100% throughout. In addition, the mortality at 100 ppm in the test with Aphis gossypii amounted to 100%. For the same molecule, the pest or weed control at 160 µg/disc, 160 µg/well with Diabrotica balteata stood at 100%.

Regarding `CC(c1ncnn1-c1ncccn1)N(Cc1ccccc1)C(=O)c1cc(Cl)cc(C(F)(F)F)c1` (stereo not drawn) [Compound I-99], the mortality at 20 ppm in the test on Myzus persicae was found to be 100%. In addition, the mortality at 500 g/ha with Spodoptera frugiperda was 100%; in the test on Phaedon cochleariae, 100%; with Nezara viridula it was 100%; in the test with Nilaparvata lugens, 90%. Also, in the test with Aphis gossypii, the mortality at 100 ppm was found to be 100%. Moreover, the pest or weed control at 160 µg/disc, 160 µg/well in the test with Diabrotica balteata came to 100%.

With `CC(c1ncnn1-c1ncccn1)N(Cc1ccc(F)cc1)C(=O)c1cc(Cl)cc(C(F)(F)F)c1` (stereo not drawn) [Compound I-98], the mortality at 20 ppm in the test with Myzus persicae was found to be 100%. Moreover, the mortality at 500 g/ha in the test on Spodoptera frugiperda came to 83%; in the test on Phaedon cochleariae it was 100%; in the test on Nezara viridula, 100%; in the test with Nilaparvata lugens, 100%. Moreover, in the test with Aphis gossypii, the mortality at 100 ppm is 100%. In addition, the pest or weed control at 160 µg/disc, 160 µg/well in the test with Diabrotica balteata is 100%.

For the molecule `CC(NC(=O)c1cncc(C(F)(F)F)c1)c1ncnn1-c1ncccn1` (stereo not drawn) [Compound I-115], in the test with Myzus persicae, the mortality at 20 ppm was determined as 100%. Moreover, the mortality at 500 g/ha came out at 83% in the test with Spodoptera frugiperda, 100% with Phaedon cochleariae, 100% with Nezara viridula and 100% in the test with Nilaparvata lugens. The mortality at 100 ppm in the test with Aphis gossypii came out at 100%. Further, the pest or weed control at 160 µg/disc, 160 µg/well with Diabrotica balteata worked out at 100%.

For `CC(c1ncnn1-c1ncccn1)N(C)C(=O)c1cc(Cl)cc(C(F)(F)F)c1` (stereo not drawn) [Compound I-100, 3-chloro-N-methyl-N-[1-(2-pyrimidin-2-yl-1,2,4-triazol-3-yl)ethyl]-5-(trifluoromethyl)benzamide], in the test on Myzus persicae, the mortality at 20 ppm was 100%. Besides, the mortality at 500 g/ha with Spodoptera frugiperda, in the test with Phaedon cochleariae, with Nezara viridula and in the test on Nilaparvata lugens was 100% each time. For the same molecule, the mortality at 100 ppm with Aphis gossypii stood at 100%. In the test with Diabrotica balteata, the pest or weed control at 160 µg/disc, 160 µg/well is 100%.

Take `CC(c1ncnn1-c1ncccc1F)N(CC1CC1)C(=O)c1cc(Cl)cc(C(F)(F)F)c1` (stereo not drawn) [Compound I-106]: in the test with Myzus persicae, the mortality at 20 ppm was determined as 100%. In addition, the mortality at 500 g/ha with Spodoptera frugiperda, in the test with Phaedon cochleariae, with Nezara viridula and in the test on Nilaparvata lugens was 100% throughout. Also, in the test on Aphis gossypii, the mortality at 100 ppm is 100%. Moreover, the pest or weed control at 160 µg/disc, 160 µg/well in the test with Diabrotica balteata is 100%.

With `Cc1nc(C(C)N(CC2CC2)C(=O)c2cc(Cl)cc(C(F)(F)F)c2)n(-c2ncc(Cl)cn2)n1` (stereo not drawn) [Compound I-78, 3-chloro-N-[1-[2-(5-chloropyrimidin-2-yl)-5-methyl-1,2,4-triazol-3-yl]ethyl]-N-(cyclopropylmethyl)-5-(trifluoromethyl)benzamide], the mortality at 20 ppm with Myzus persicae was determined as 100%. Besides, the mortality at 500 g/ha in the test with Spodoptera frugiperda, with Phaedon cochleariae, in the test with Nezara viridula and with Nilaparvata lugens was 100% each time. Further, the mortality at 100 ppm in the test on Aphis gossypii is 100%. In addition, in the test on Diabrotica balteata, the pest or weed control at 160 µg/disc, 160 µg/well turned out to be 100%.

Consider `CC(c1ncnn1-c1ncccn1)N(CCC(F)(F)F)C(=O)c1cc(Cl)cc(C(F)(F)F)c1` (stereo not drawn) [Compound I-26, 3-chloro-N-[1-(2-pyrimidin-2-yl-1,2,4-triazol-3-yl)ethyl]-5-(trifluoromethyl)-N-(3,3,3-trifluoropropyl)benzamide], for which, in the test on Myzus persicae, the mortality at 20 ppm is 100%. For the same molecule, the mortality at 500 g/ha was determined as 100% in the test on Spodoptera frugiperda, 100% with Phaedon cochleariae and 90% in the test with Nilaparvata lugens. The mortality at 100 ppm in the test with Aphis gossypii was 100%. The pest or weed control at 160 µg/disc, 160 µg/well in the test with Diabrotica balteata was determined as 100%.

Consider `CC(c1ncnn1-c1ncccn1)N(CC1CC1)C(=O)c1cc(Br)cc(C(F)(F)F)c1` (stereo not drawn) [Compound I-62, 3-bromo-N-(cyclopropylmethyl)-N-[1-(2-pyrimidin-2-yl-1,2,4-triazol-3-yl)ethyl]-5-(trifluoromethyl)benzamide], for which the mortality at 20 ppm with Myzus persicae came out at 100%. Moreover, the mortality at 500 g/ha in the test on Spodoptera frugiperda stood at 100%; with Phaedon cochleariae, 100%; in the test on Nezara viridula it was 90%; in the test with Nilaparvata lugens it was 90%. In the test with Aphis gossypii, the mortality at 100 ppm was 100%. Further, in the test on Diabrotica balteata, the pest or weed control at 160 µg/disc, 160 µg/well amounted to 100%.

Take `CC(c1ncnn1-c1ncccn1)N(CC(F)F)C(=O)c1cc(Cl)cc(OC(F)(F)F)c1` (stereo not drawn) [Compound I-121, 3-chloro-N-(2,2-difluoroethyl)-N-[1-(2-pyrimidin-2-yl-1,2,4-triazol-3-yl)ethyl]-5-(trifluoromethoxy)benzamide]: the mortality at 20 ppm in the test on Myzus persicae is 100%. Moreover, the mortality at 500 g/ha in the test on Spodoptera frugiperda, with Phaedon cochleariae, in the test with Nezara viridula and in the test with Nilaparvata lugens was 100% throughout. In addition, in the test on Aphis gossypii, the mortality at 100 ppm was found to be 100%. In addition, the pest or weed control at 160 µg/disc, 160 µg/well in the test on Diabrotica balteata came to 100%.

On to `CC(c1ncnn1-c1ncccn1)N(CC1CC1)C(=O)c1cncc(C(F)(F)F)c1` (stereo not drawn) [Compound I-28, N-(cyclopropylmethyl)-N-[1-(2-pyrimidin-2-yl-1,2,4-triazol-3-yl)ethyl]-5-(trifluoromethyl)pyridine-3-carboxamide], for which the mortality at 20 ppm with Myzus persicae was 100%. Also, the mortality at 100 ppm with Aphis gossypii was determined as 100%. The mortality at 500 g/ha in the test with Phaedon cochleariae, in the test with Nezara viridula and in the test with Nilaparvata lugens was 100% in each case. The pest or weed control at 160 µg/disc, 160 µg/well in the test on Diabrotica balteata came to 100%.

For the molecule `C[C@H](NC(=O)c1cc(C(F)(F)F)cc(C(F)(F)F)c1)c1ncnn1-c1ncccn1` [Compound I-66, N-[(1S)-1-(2-pyrimidin-2-yl-1,2,4-triazol-3-yl)ethyl]-3,5-bis(trifluoromethyl)benzamide], the mortality at 20 ppm in the test with Myzus persicae was determined as 100%. The mortality at 500 g/ha in the test with Spodoptera frugiperda, in the test on Phaedon cochleariae, in the test with Nezara viridula and with Nilaparvata lugens was 100% throughout. For the same molecule, the mortality at 100 ppm with Aphis gossypii worked out at 100%. The pest or weed control at 160 µg/disc, 160 µg/well in the test with Diabrotica balteata is 100%.

Consider `CC(NC(=O)c1cccc(C#N)c1)c1ncnn1-c1ncccn1` (stereo not drawn) [Compound I-52], for which, in the test on Myzus persicae, the mortality at 20 ppm was determined as 90%. Also, the mortality at 100 ppm in the test on Aphis gossypii was determined as 100%. Moreover, the mortality at 500 g/ha with Phaedon cochleariae, in the test with Nezara viridula and with Nilaparvata lugens was 100% in each case.

Consider `CC(c1ncnn1-c1ncccn1)N(CC(F)F)C(=O)c1cccc(SC(F)(F)F)c1` (stereo not drawn) [Compound I-122], for which, in the test on Myzus persicae, the mortality at 20 ppm was found to be 100%. Moreover, the mortality at 100 ppm with Aphis gossypii is 100%. The mortality at 500 g/ha with Phaedon cochleariae, in the test with Nezara viridula and in the test on Nilaparvata lugens was 100% each time. Also, the pest or weed control at 160 µg/disc, 160 µg/well in the test on Diabrotica balteata was 100%.

The record behind these values is patent US20200404919A1, “USE OF HETEROARYL-TRIAZOLE AND HETEROARYL-TETRAZOLE COMPOUNDS AS PESTICIDES IN PLANT PROTECTION” (Bayer Aktiengesellschaft, priority 2018, published 2020).
